From PubChem BioAssay AID1963864 (Molecular Pharmacology Branch, DTP, NCI, 2024)

System: KRAS PDC multicell spheroid viability
Experiment: Anticancer human tumor 521955-158-R6-J3-PDC patient-derived pancreatic carcinoma cell line growth inhibition [KRAS2]
Conditions: for IC50: curve of first compound; for viability, T/C: stronger effect = lower value
Source text: Multicellular complex tumor spheroid response to RAS pathway inhibitors in combination with a targeted agents in patient-derived cell lines with oncogenic KRAS variants from multiple cancer types
A high-throughput screen of multi-cell type tumor spheroids was designed to identify active combinations of targeted small molecules and KRAS pathway inhibitors. Complex spheroids include a stromal component modeled by human endothelial cells (HUVEC) and fibroblasts modeled by human mesenchymal stem cells (MSCs). The concentration ranges selected for each drug and investigational agent were based upon clinically achievable concentrations if the clinical Cmax of the agent was known.
Compounds. The drugs and investigational agents: BI-3406 (NSC825286), BAY-293 (NSC824723), batoprotafib (TNO155; NSC825523), sotorasib (AMG 510; NSC818433), MRTX1257 (NSC819558), elimusertib (BAY 1895344; NSC800525), molibresib (GSK525762; NSC774829), temuterkib (LY3214996; NSC803410), venetoclax (NSC766270), alisertib (NSC759677), olaparib (NSC753686), talazoparib (NSC767125), erdafitinib (NSC781556), ipatasertib (NSC767898), cabozantinib (NSC761068), nintedanib (NSC756659), abemaciclib (NSC768073), docetaxel (NSC628503), trametinib (NSC758246), and sapanisertib (NSC764658) were obtained from the National Cancer Institute (NCI) Developmental Therapeutics Program Chemical Repository. The FDA-approved anticancer drug set is available from the Developmental Therapeutics Program. […] The stock solutions were prepared in dimethyl sulfoxide (DMSO, Sigma-Aldrich, St. Louis, MO, cat. D2650) at 800-fold the tested concentration and stored at -70 degrees C prior to their use. All drugs and investigational agents were tested over a range starting from a high concentration at or near the clinical Cmax and decreasing in half-log increments. If the clinical Cmax for an agent had not been determined, the highest concentration tested was 10 microM.
Cell Culture. All cells were maintained in an incubator at 37 degrees C and 5% CO2 with 95% humidity. The PDC lines were cultured according to standard operating procedures established by the NCI PDMR (https://pdmr.cancer.gov/sops/default.htm). Briefly, all PDCs were thawed and cultured in Matrigel-coated flasks prepared with a working solution of 1X Ham's F-12 nutrient mix, without supplementation (Invitrogen, Waltham, MA, cat. 11765054), 100 U/mL penicillin-streptomycin (Invitrogen, cat. 15140122), and 2.5% Matrigel (Corning Inc., Corning, NY, cat. 354248) for the first three passages. All PDCs were cultured in complete DMEM/F-12 media containing advanced DMEM/F-12 (Invitrogen, cat. 12634028), 4.9% defined fetal bovine serum, heat inactivated (HyClone Laboratories Inc., Logan, UT, cat. SH30070.03HI), 389 ng/mL hydrocortisone (Sigma-Aldrich, cat. H4001), 9.7 ng/mL human EGF recombinant protein (Invitrogen, cat. PHG0313), 23.4 microg/mL adenine (Sigma-Aldrich, cat. A2786), 97.3 U/mL penicillin-streptomycin (Invitrogen, cat. 15140122), 1.9 mM L-glutamine (Invitrogen, cat. 25030081), and 9.7 microM Y-27632 dihydrochloride (Tocris Bioscience, Bristol, United Kingdom, cat. 1254). The PDCs were cultured in complete DMEM/F12 media without 9.7 microM Y-27632 dihydrochloride for at least two passages prior to the screen. The established cell line HOP-62 was cultured in RPMI 1640 medium, HEPES (Invitrogen, cat. 22400105) with 10% defined fetal bovine serum (HyClone Laboratories Inc., cat. SH30070.03) and 2 mM L-glutamine (Invitrogen, cat. 25030081). The pooled donor HUVEC were cultured in endothelial cell growth medium 2 (PromoCell, Heidelberg, Germany, cat. C-22011) and the hMSC were cultured in mesenchymal stem cell growth medium 2 (PromoCell, cat. C-28009). For all experiments, HUVEC and hMSC were used at passages </=5, while the malignant cell lines were used at passages </=15. […]

[1] = second compound 0.1 µM, first compound 0.0316 µM
[2] = second compound 0.1 µM, first compound 0.1 µM
[3] = second compound 0.1 µM, first compound 0.316 µM
[4] = second compound 0.1 µM, first compound 1 µM
[5] = second compound 0.1 µM, first compound 3.16 µM
[6] = second compound 0.1 µM, first compound 10 µM
[7] = second compound 0.316 µM, first compound 0.0316 µM
[8] = second compound 0.316 µM, first compound 0.1 µM
[9] = second compound 0.316 µM, first compound 0.316 µM
[10] = second compound 0.316 µM, first compound 1 µM
[11] = second compound 0.316 µM, first compound 3.16 µM
[12] = second compound 0.316 µM, first compound 10 µM
[13] = second compound 1 µM, first compound 0.0316 µM
[14] = second compound 1 µM, first compound 0.1 µM
[15] = second compound 1 µM, first compound 0.316 µM
[16] = second compound 1 µM, first compound 1 µM
[17] = second compound 1 µM, first compound 3.16 µM
[18] = second compound 1 µM, first compound 10 µM
[19] = second compound 3.16 µM, first compound 0.0316 µM
[20] = second compound 3.16 µM, first compound 0.1 µM
[21] = second compound 3.16 µM, first compound 0.316 µM
[22] = second compound 3.16 µM, first compound 1 µM
[23] = second compound 3.16 µM, first compound 3.16 µM
[24] = second compound 3.16 µM, first compound 10 µM
[25] = second compound 10 µM, first compound 0.0316 µM
[26] = second compound 10 µM, first compound 0.1 µM
[27] = second compound 10 µM, first compound 0.316 µM
[28] = second compound 10 µM, first compound 1 µM
[29] = second compound 10 µM, first compound 3.16 µM
[30] = second compound 10 µM, first compound 10 µM
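Also: drug exposure lasted seven days.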
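For viability, T/C in this document: 100% = DMSO vehicle wells and lower means fewer viable cells.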

| Compound | IC50 (second compound 0.1 µM) [µM] | IC50 (second compound 0.316 µM) [µM] | IC50 (second compound 1 µM) [µM] | IC50 (second compound 3.16 µM) [µM] | IC50 (second compound 10 µM) [µM] | viability, T/C [1] [%] | viability, T/C [2] [%] | viability, T/C [3] [%] | viability, T/C [4] [%] | viability, T/C [5] [%] | viability, T/C [6] [%] | viability, T/C [7] [%] | viability, T/C [8] [%] | viability, T/C [9] [%] | viability, T/C [10] [%] | viability, T/C [11] [%] | viability, T/C [12] [%] | viability, T/C [13] [%] | viability, T/C [14] [%] | viability, T/C [15] [%] | other results |
| --- | --- | --- | --- | --- | --- | --- | --- | --- | --- | --- | --- | --- | --- | --- | --- | --- | --- | --- | --- | --- | --- |
| CC1(C)CCC(CN2CCN(c3ccc(C(=O)NS(=O)(=O)c4ccc(NCC5CCOCC5)c([N+](=O)[O-])c4)c(Oc4cnc5[nH]ccc5c4)c3)CC2)=C(c2ccc(Cl)cc2)C1 + CNCc1ccccc1-c1csc(C(C)Nc2nc(C)nc3cc(OC)c(OC)cc23)c1 | 6.69 | 5.17 | 3.81 | < 0.0316 | < 0.0316 | 98.5 | 98.1 | 94.6 | 97.1 | 81.3 | 32.9 | 96.8 | 90.5 | 90.2 | 84.2 | 71 | 23.2 | 83 | 83.6 | 84.4 | viability, T/C [16]: 82.6%; viability, T/C [17]: 56.8%; viability, T/C [18]: 14.7%; viability, T/C [19]: 0.59%; viability, T/C [20]: 1.4%; viability, T/C [21]: 0.57%; viability, T/C [22]: 0.81%; viability, T/C [23]: 1.65%; viability, T/C [24]: 3.03%; viability, T/C [25]: 0.22%; viability, T/C [26]: 0.61%; viability, T/C [27]: 0.21%; viability, T/C [28]: 0.23%; viability, T/C [29]: 1.01%; viability, T/C [30]: 0.27% |
| COc1cc(Nc2ncc3c(n2)-c2ccc(Cl)cc2C(c2c(F)cccc2OC)=NC3)ccc1C(=O)O + C=CC(=O)N1CCN(c2nc(=O)n(-c3c(C)ccnc3C(C)C)c3nc(-c4c(O)cccc4F)c(F)cc23)C(C)C1 | > 10 | > 10 | > 10 | > 10 | > 10 | 109 | 103 | 102 | 92.6 | 89.1 | 89.8 | 100 | 108 | 99.4 | 79.6 | 82.9 | 82.1 | 93.2 | 103 | 94.7 | viability, T/C [16]: 95.6%; viability, T/C [17]: 86.3%; viability, T/C [18]: 80.5%; viability, T/C [19]: 91.3%; viability, T/C [20]: 89.9%; viability, T/C [21]: 77.4%; viability, T/C [22]: 78.6%; viability, T/C [23]: 84.6%; viability, T/C [24]: 79%; viability, T/C [25]: 71.5%; viability, T/C [26]: 77.9%; viability, T/C [27]: 70.6%; viability, T/C [28]: 62.4%; viability, T/C [29]: 54.2%; viability, T/C [30]: 58.3% |
